Results: patent publication US20220356174A1, “PYRIDIN-2-ONE COMPOUNDS USEFUL AS SMARCA2 ANTAGONISTS” (Epizyme, Inc., priority 2018, published 2022)

Tests used:
A549 cells = assay: Long term proliferation (LTP) assay, day 15 IC50 in A549 cells; assay type: cell-based; conditions: Homo sapiens, 360 h
FL-SMARCA4 = FL-SMARCA4 (Homo sapiens, UniProt P51532); assay: SMARCA4 ATPase activity assay (ADP-Glo, chicken mononucleosome substrate); conditions: ATPase assay, enzyme 5 nM, ATP 250 uM, chicken mononucleosome 10 nM, 30 min preincubation
FL-SMARCA4, sequence (P51532 whole entry): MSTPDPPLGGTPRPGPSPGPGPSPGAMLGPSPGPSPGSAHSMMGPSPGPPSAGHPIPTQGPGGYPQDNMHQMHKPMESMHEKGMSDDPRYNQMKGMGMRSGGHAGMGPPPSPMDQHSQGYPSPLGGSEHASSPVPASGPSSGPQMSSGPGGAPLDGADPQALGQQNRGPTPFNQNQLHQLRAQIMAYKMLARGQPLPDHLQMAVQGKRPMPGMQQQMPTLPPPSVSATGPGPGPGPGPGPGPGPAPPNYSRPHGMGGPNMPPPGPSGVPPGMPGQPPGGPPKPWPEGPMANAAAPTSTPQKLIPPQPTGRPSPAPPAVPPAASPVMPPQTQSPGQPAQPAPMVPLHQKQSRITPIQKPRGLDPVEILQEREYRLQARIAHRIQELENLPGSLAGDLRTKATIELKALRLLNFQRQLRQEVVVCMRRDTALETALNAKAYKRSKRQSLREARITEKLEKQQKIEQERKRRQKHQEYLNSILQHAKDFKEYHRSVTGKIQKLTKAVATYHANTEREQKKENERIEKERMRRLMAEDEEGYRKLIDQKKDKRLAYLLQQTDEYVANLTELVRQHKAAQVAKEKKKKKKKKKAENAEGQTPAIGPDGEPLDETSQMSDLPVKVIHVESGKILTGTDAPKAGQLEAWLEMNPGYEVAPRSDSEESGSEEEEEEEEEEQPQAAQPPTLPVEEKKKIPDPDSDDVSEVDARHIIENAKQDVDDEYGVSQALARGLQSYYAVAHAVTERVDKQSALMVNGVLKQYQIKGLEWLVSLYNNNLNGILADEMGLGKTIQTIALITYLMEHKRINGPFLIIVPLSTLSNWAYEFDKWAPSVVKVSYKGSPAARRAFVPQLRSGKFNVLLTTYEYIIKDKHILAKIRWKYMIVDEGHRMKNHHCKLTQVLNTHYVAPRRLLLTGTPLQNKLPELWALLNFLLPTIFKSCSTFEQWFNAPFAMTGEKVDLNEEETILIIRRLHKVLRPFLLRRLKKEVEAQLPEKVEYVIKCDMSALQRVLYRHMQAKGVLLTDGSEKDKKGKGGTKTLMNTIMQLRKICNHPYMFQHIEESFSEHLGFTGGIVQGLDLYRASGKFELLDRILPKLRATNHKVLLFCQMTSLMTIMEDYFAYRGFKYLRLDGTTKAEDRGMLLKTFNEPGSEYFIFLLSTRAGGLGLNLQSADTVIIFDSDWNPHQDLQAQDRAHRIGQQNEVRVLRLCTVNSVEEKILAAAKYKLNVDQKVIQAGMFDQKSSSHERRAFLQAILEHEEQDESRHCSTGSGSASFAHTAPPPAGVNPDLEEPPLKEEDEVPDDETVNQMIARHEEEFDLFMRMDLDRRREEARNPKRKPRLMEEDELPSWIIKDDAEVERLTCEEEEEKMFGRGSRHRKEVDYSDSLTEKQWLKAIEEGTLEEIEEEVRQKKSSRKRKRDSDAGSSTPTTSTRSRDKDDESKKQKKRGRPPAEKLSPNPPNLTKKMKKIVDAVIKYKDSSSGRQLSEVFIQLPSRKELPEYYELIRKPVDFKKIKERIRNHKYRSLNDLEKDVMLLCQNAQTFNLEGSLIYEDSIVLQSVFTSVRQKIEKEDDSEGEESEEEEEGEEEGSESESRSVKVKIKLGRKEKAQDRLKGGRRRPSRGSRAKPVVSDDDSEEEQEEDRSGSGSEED

H358 cells = assay: High-throughput proliferation (HTP) assay for H358 cells (CellTiter-Glo, 7 days); assay type: cell-based; conditions: Homo sapiens, NCI-H358, 168 h, read-out: H358 SMARCA2 IC50
Summary of the method: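 Cells were plated at 1,000 cells/well in RPMI 1640 + 10% HI-FBS + 1% pen/strep on pre-dispensed compound and incubated 7 days at 37 °C, 5% CO2. Viability was read as ATP luminescence with CellTiter-Glo after 30 min at RT. DMSO served as 0% and 10 µM doxorubicin as 100% inhibition for EC50/IC50.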

[1] = tested on: various lung cancer cell lines; assay: Long term proliferation (LTP) assay in various cancer cell lines; assay type: cell-based
Experimental: The following cell lines were evaluated in an adherent cell line proliferation assay described herein: A549, HCC15, COV434, NCIH460, NCIH358, NCIH358-SMARCA2, NCIH358-SMARCA, NCIH1703, NCIH838, NCIH322, NCIH2122, NCIH2023, NCIH1355, NCIH1693, NCIH441, NCIH2030, NCIH1573, NCIH1373, NCIH1650, and NCIH1693. Plating densities for each cell line were determined based on growth curves (measured by ATP viability) and density over a 7 day timecourse. On the day before compound treatment, cells were plated in either 96-well plates in triplicate (for the day 0-7 timecourse) or 6-well plates (for replating on day 7 for the remainder of the timecourse). On Day 0, cells were either untreated, DMSO-treated, or treated with increasing concentrations of Compound 139 up to 10 μM. Plates were read on Day 0, Day 4, and Day 7 using a luminescent cell viability assay, with compound/media being replenished on Day 4. On Day 7, the 6-well plates were trypsinized, centrifuged, and resuspended in fresh media for counting by Vi-Cell. Cells from each treatment were replated at the original density in 96-well plates in triplicate. Cells were allowed to adhere to the plate overnight, and cells were treated as on Day 0. On Day 7, 11 and 14, plates were read using a luminescent cell viability assay, with compound/media being replenished on Day 11. Averages of triplicates were used to plot proliferation over the timecourse, and calculate IC50 values.
The following cell lines were evaluated in an adherent cell line proliferation assay described herein: NCIH522, CORL23, NCIH1693, NCIH1838, HCC1588, NCIH1435, NCIH2085, HCC827, NCIH1792, NCIH596, NCIH1568, NCIH1793, NCIH2126, CORL105, NCIH1573, NCIH1693, NCIH1395, HCC44, NCIH2126, NCIH520, NCIH1373, NCIH2172, NCIH23, HCT116, […], NCIH2347, NCIH2110, NCIH647, NCIH1437, AGS, KMS11, BT549, HUPT4, NCIH1048, TE10, and TE14. Cell densities were determined by growth curve as per protocol 1. For the proliferation assay, on Day 0, cells were either untreated, DMSO-treated, or treated with increasing concentrations of Compound 139 up to 10 μM. Plates were read on Day 0, Day 4, and Day 7 using luminescent cell viability assay. On Day 7, the 6-well plates were trypsinized, centrifuged, and resuspended in fresh media for counting by Vi-Cell. Cells from each treatment were replated at the original density in 96-well plates in triplicate. Cells were treated with compound as on Day 0. On Day 7, 11 and 14, plates were read using a luminescent cell viability assay. Averages of triplicates were used to plot proliferation over the timecourse, and calculate IC50 values.

[2] = Homo sapiens, A549, A549, SMARCA4 protein Absent, Lung NSCLC adenocarcinoma
[3] = Homo sapiens, COR-L105, CORL105, SMARCA4 protein Present, Lung NSCLC adenocarcinoma
[4] = Homo sapiens, HCT-116, HCT116, SMARCA4 protein Present, Colon Cancer
[5] = Homo sapiens, NCI-H358, NCIH358, SMARCA4 protein Present, Lung NSCLC bronchioloalveolar adenocarcinoma
[6] = Homo sapiens, NCI-H358, NCIH358 SMARCA4, SMARCA4 protein Absent, Lung NSCLC bronchioloalveolar adenocarcinoma
[7] = Homo sapiens, NCI-H460, NCIH460, SMARCA4 protein Present, Lung NSCLC large cell carcinoma
[8] = Homo sapiens, NCI-H522, NCIH522, SMARCA4 protein Absent, Lung NSCLC adenocarcinoma
[9] = Homo sapiens, NCI-H1299, NCIH1299, Lung NSCLC non small cell carcinoma
[10] = NCI-H1568, NCIH1568, SMARCA4 protein Absent, Lung NSCLC adenocarcinoma
[11] = NCIH2085, SMARCA4 protein Present, Lung NSCLC adenocarcinoma
[12] = RERFLCAI, SMARCA4 protein Absent, Lung NSCLC squamous cell carcinoma

Compound: N#Cc1cc(C(=O)Nc2cc(F)c(=O)n(CC(F)F)c2)sc1C(F)(F)F [Compound 82c, 4-cyano-N-[1-(2,2-difluoroethyl)-5-fluoro-6-oxopyridin-3-yl]-5-(trifluoromethyl)thiophene-2-carboxamide]
- IC50 (A549 cells): 259 nM
- IC50 (FL-SMARCA4; FL-SMARCA4 IC>50, Table 3c.2): 66.1 nM
- IC50 (H358 cells): > 10000 nM
- IC50 [1, 2]: 259 nM
- IC50 [1, 3]: 170 nM
- IC50 [1, 4]: 142 nM
- IC50 [1, 5]: 1700 nM
- IC50 [1, 6]: 383 nM
- IC50 [1, 7]: 10000 nM
- IC50 [1, 8]: 9700 nM
- IC50 [1, 9]: 1700 nM
- IC50 ([1]; Homo sapiens, NCI-H1581, NCIH1581, SMARCA4 protein Absent, Lung NSCLC large cell carcinoma): 10000 nM
- IC50 [1, 10]: 10000 nM
- IC50 [1, 11]: 10000 nM
- IC50 [1, 12]: 26 nM

Compound: N#Cc1sc(C(=O)Nc2cc(F)c(=O)n(CCF)c2)cc1Cl [Compound 139]
- IC50 (A549 cells): 316 nM
- IC50 (FL-SMARCA4; FL-SMARCA4 IC50, Table 3.2): 54.1 nM
- IC50 ([1]; HCC15, HCC15, SMARCA4 protein Absent, Lung NSCLC squamous cell carcinoma): 677 nM
- IC50 ([1]; HCC1588, HCC1588, SMARCA4 protein Present, Lung NSCLC squamous cell carcinoma): 906 nM
- IC50 [1, 2]: 316 nM
- IC50 ([1]; Homo sapiens, COR-L23, CORL23, SMARCA4 protein Present, Lung NSCLC large cell carcinoma): 1700 nM
- IC50 [1, 3]: 95 nM
- IC50 ([1]; Homo sapiens, Calu-6, CALU6, SMARCA4 protein Present, Lung NSCLC undifferentiated carcinoma): 1210 nM
- IC50 ([1]; Homo sapiens, HCC44, HCC44, SMARCA4 protein Present, Lung NSCLC adenocarcinoma): 1270 nM
- IC50 ([1]; Homo sapiens, HCC827, HCC827, SMARCA4 protein Present, Lung NSCLC adenocarcinoma (bronchioalveolar features)): 10000 nM
- IC50 [1, 4]: 169 nM
- IC50 ([1]; Homo sapiens, NCI-H23, NCIH23, SMARCA4 protein Absent, Lung NSCLC non small cell carcinoma): 1100 nM
- IC50 [1, 5]: 10000 nM
- IC50 ([1]; Homo sapiens, NCI-H358, NCIH358 SMARCA2, SMARCA4 protein Present, Lung NSCLC bronchioloalveolar adenocarcinoma): 10000 nM
- IC50 [1, 6]: 347 nM
- IC50 ([1]; Homo sapiens, NCI-H441, NCIH441, SMARCA4 protein Present, Lung NSCLC adenocarcinoma): 5200 nM
- IC50 [1, 7]: 10000 nM
- IC50 [1, 8]: 10000 nM
- IC50 ([1]; Homo sapiens, NCI-H596, NCIH596, Lung NSCLC mixed adenosquamous carcinoma): 8800 nM
- IC50 ([1]; Homo sapiens, NCI-H810, NCIH810, SMARCA4 protein Present, Lung NSCLC large cell carcinoma): 174 nM
- IC50 ([1]; Homo sapiens, NCI-H838, NCIH838, SMARCA4 protein Present, Lung NSCLC adenocarcinoma): 10000 nM
- IC50 [1, 9]: 857 nM
- IC50 ([1]; Homo sapiens, NCI-H1395, NCIH1395, SMARCA4 protein Present, Lung NSCLC adenocarcinoma): 10000 nM
- IC50 ([1]; Homo sapiens, NCI-H1437, NCIH1437, SMARCA4 protein Present, Lung NSCLC adenocarcinoma): 1500 nM
- IC50 ([1]; Homo sapiens, NCI-H1563, NCIH1563, SMARCA4 protein Present, Lung NSCLC adenocarcinoma): 2300 nM
- IC50 ([1]; Homo sapiens, NCI-H1573, NCIH1573, SMARCA4 protein Absent, Lung NSCLC adenocarcinoma): 504 nM
- IC50 ([1]; Homo sapiens, NCI-H1650, NCIH1650, SMARCA4 protein Present, Lung NSCLC bronchioalveolar carcinoma): 5000 nM
- IC50 ([1]; Homo sapiens, NCI-H1693, NCIH1693, SMARCA4 protein Absent, Lung NSCLC adenocarcinoma): 101 nM
- IC50 ([1]; Homo sapiens, NCI-H1792, NCIH1792, SMARCA4 protein Present, Lung NSCLC adenocarcinoma): 10000 nM
- IC50 ([1]; Homo sapiens, NCI-H1793, NCIH1793, SMARCA4 protein Present, Lung NSCLC adenocarcinoma): 890 nM
- IC50 ([1]; Homo sapiens, NCI-H1838, NCIH1838, SMARCA4 protein Present, Lung NSCLC non-small cell lung cancer): 587 nM
- IC50 ([1]; Homo sapiens, NCI-H1975, NCIH1975, SMARCA4 protein Present, Lung NSCLC non small cell carcinoma): 10000 nM
- IC50 ([1]; Homo sapiens, NCI-H2030, NCIH2030, SMARCA4 protein Absent, Lung NSCLC non small cell carcinoma): 1140 nM
- IC50 ([1]; Homo sapiens, NCI-H2122, NCIH2122, SMARCA4 protein Present, Lung NSCLC adenocarcinoma): 2800 nM
- IC50 ([1]; Homo sapiens, NCI-H2126, NCIH2126, SMARCA4 protein Present, Lung NSCLC adenocarcinoma): 5500 nM
- IC50 ([1]; Homo sapiens, NCI-H2342, NCIH2342, SMARCA4 protein Present, Lung NSCLC non-small cell lung cancer): 2500 nM
- IC50 ([1]; Homo sapiens, PANC-1, PANC1, Pancreatic Cancer ductal carcinoma): 10000 nM
- IC50 ([1]; Homo sapiens, SW900, SW900, SMARCA4 protein Present, Lung NSCLC squamous cell carcinoma): 10000 nM
- IC50 ([1]; Hs766T, Pancreatic Cancer ductal carcinoma): 1000 nM
- IC50 ([1]; NCI-H1435, NCIH1435, SMARCA4 protein Present, Lung NSCLC adenocarcinoma): 443 nM
- IC50 [1, 10]: 395 nM
- IC50 [1, 11]: 314 nM
- IC50 [1, 12]: 61 nM
- sensitivity to inhibition of SMARCA2 (IC50): cell lines with loss or absence of SMARCA4 versus cell lines with SMARCA4 protein present ([1]; lung cancer cell lines of Table 5, FIG. 1): more sensitive
